Experimental data from patent US4308251A, “Controlled release formulations of orally-active medicaments” (Boots Pharmaceuticals, Inc., priority 1980, dated 1981).

Tests used:
[1] = system: patients with pain (chronic bursitis, knee injury); assay type: in vivo, human
Description: patient two is a housewife who suffered a painful right shoulder for two years. Consultants believed this condition was a result of chronic bursitis.
patient three is a person who is employed full time in an accounting department of a small company. […] While skating they fell, causing a partial tear of the medial collateral ligament and medial meniscus of the left knee. Support wrappings and acetaminophen were tried. […] This dosage regimen was maintained throughout the patient's convalescence.
patient one sustained a traumatic injury to the medial portion of their right knee during a basketball game.

patients taking aspirin = details: background statement; cited from earlier work
[2] = Patient No. 1, aspirin as regularly prescribed

| SMILES | pain relief ([1]; Patient No. 2, regular acetaminophen) | effect on shoulder pain [1, 2] | side effects [1, 2] | patients considered treatment failures because of side effects (patients taking aspirin) |
| --- | --- | --- | --- | --- |
| CC(=O)Nc1ccc(O)cc1 [acetaminophen] | only partial and temporary | – | – | – |
| CC(=O)Oc1ccccc1C(=O)O [aspirin, acetylsalicylic acid] | – | ineffective | epigastric discomfort | Approximately sixty |
